Measurements taken from US20240099295A1, “CELL TREATMENT AGENT” (AYA Inc., priority 2021, published 2024).

Tested on: human amnion-derived mesenchymal stem cells
Assay: Differentiation state maintenance: marker positive rate by flow cytometry
Type: cell-based
Details: DS 0.1 mg/mL in serum-free cell culture solution, 5 days of culture
Procedure: Using dextran sulfate (DS) as an active ingredient of the cell treatment agent, the cell dormancy effect by DS was considered according to the effect of preventing differentiation by maintaining the cells in an undifferentiated state, as an index. As the cells, human amnion-derived mesenchymal stem cells in an undifferentiated state were used. Using a normal serum-free cell culture solution as a conditioning solution, a cell preservation solution a was prepared by adding DS to the conditioning solution at 0.1 mg/ml, and a cell preservation solution b was prepared by adding FBS to the conditioning solution at 10%. To each of the cell preservation solutions a and b, the aforementioned stem cells were added at 10^5 cells/ml, respectively, and then cultured for 5 days under normal cell culture conditions (37° C., CO2 concentration of 5%, humidity of 100%). The degrees of differentiation of stem cells before culture and after 5 days of culture were evaluated and compared by flow cytometry. The method followed the method described in Masoumeh Fakhr Taha, Vahideh Hedayati “Isolation, identification and multipotential differentiation of mouse adipose tissue-derived stem cells” Tissue and Cell 42 (2010) 211-216. The evaluation was made according to CD29 and CD44 as undifferentiation markers and CD11b, CD31, and CD45 as markers of differentiation into mesenchymal cells.

dextran sulfate [DS]
Positive rate of marker CD11b after culture (differentiation marker): 19.8%
Positive rate of marker CD31 after culture (differentiation marker): 8.3%
Positive rate of marker CD45 after culture (differentiation marker): 7.3%
Positive rate of marker CD29 after culture (undifferentiation marker): 98.7%
Positive rate of marker CD44 after culture (undifferentiation marker): 62.3%
